Consider 29 compounds from patent publication US20250136596A1, “MEMBRANE-ASSOCIATED TYROSINE- AND THREONINE-SPECIFIC CDC2-INHIBITORY KINASE (PKMYT1) INHIBITORS AND USES THEREOF” (Insilico Medicine IP Limited, priority 2022, published 2025).

In the test the target is PKMYT1 (Homo sapiens (Human), UniProt Q99640). Kind of test: PKMYT1 HTRF Assay. In kind it is binding. To be noted: Tracer 178, GST-Tb; compound 10 μM to 0.5 nM; read-out: MYT1 HTRF IC50. The procedure: Example A: PKMYT1 HTRF Assay
Compound serial dilution is performed by Echo, and the final concentrations vary from 10 μM to 0.5 nM. This was filled by the addition of 5 μL/well of Enzyme solution to the assay plate containing the compound. The plate was centrifuged at 1000 rpm for 1 minute, and incubate 15 minutes at 25 ? . Then 5 μL/well of tracer solution (Tracer 178) was added to initiate the reaction, and incubate for 60 minutes at 25° C. Next 5 μL GST-Tb was added into the assay plate, the plate was centrifuged at 1000 rpm for 1 minute, and incubate for 15 minutes at 25 ? . The assay plate was read on Envision.
Background: Time-resolved FRET reads energy transfer from a long-lived donor to a nearby acceptor.

Chain of PKMYT1 (Q99640 whole entry): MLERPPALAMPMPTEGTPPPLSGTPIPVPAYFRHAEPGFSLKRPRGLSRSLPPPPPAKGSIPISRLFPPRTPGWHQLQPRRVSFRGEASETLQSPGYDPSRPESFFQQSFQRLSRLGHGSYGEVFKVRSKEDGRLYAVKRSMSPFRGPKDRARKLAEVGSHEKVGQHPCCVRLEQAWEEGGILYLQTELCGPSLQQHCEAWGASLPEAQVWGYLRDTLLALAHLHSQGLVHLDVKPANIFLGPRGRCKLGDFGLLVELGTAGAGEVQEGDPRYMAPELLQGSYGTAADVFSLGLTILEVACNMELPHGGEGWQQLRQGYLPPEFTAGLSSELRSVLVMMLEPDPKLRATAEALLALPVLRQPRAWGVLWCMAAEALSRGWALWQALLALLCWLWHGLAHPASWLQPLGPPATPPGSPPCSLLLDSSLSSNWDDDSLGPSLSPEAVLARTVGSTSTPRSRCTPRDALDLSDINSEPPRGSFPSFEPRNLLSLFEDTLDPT

The term IC50 denotes the concentration needed to halve the response being measured. Consider `Cc1ccc(O)c(C)c1-c1cnc2[nH]c(-c3cnc(N4CC5CC4CO5)nc3)c(Cl)c2c1C#N` (centres unmarked) [Example 44, 2-(2-(2-oxa-5-azabicyclo[2.2.1]heptan-5-yl)pyrimidin-5-yl)-3-chloro-5-(3-hydroxy-2,6-dimethylphenyl)-1H-pyrrolo[2,3-b]pyridine-4-carbonitrile], for which the IC50 was < 10 nM.

Consider `Cc1ccc(O)c(C)c1-c1cnc2[nH]c(-c3cnc(N4CC(O)C4)nc3)cc2c1C#N` [Example 45, (R)-5-(3-hydroxy-2,6-dimethylphenyl)-2-(2-(3-hydroxyazetidin-1-yl)pyrimidin-5-yl)-1H-pyrrolo[2,3-b]pyridine-4-carbonitrile], for which the IC50 is < 10 nM.

Consider `Cc1ccc(O)c(C)c1-c1cnc2[nH]c(-c3cnc(N4CC(O)C4)nc3)c(Cl)c2c1C#N` [Example 46, (R)-3-chloro-5-(3-hydroxy-2,6-dimethylphenyl)-2-(2-(3-hydroxyazetidin-1-yl)pyrimidin-5-y1)-1H-pyrrolo[2,3-b]pyridine-4-carbonitrile], for which the IC50 was < 10 nM.

With `Cc1ccc(O)c(C)c1-c1cnc2[nH]c(-c3cnc(NC4CC4)nc3)cc2c1C#N` [Example 47, (R)-2-(2-(cyclopropylamino)pyrimidin-5-yl)-5-(3-hydroxy-2,6-dimethylphenyl)-1H-pyrrolo[2,3-b]pyridine-4-carbonitrile], the IC50 was < 10 nM.

As to `Cc1ccc(O)c(C)c1-c1cnc2[nH]c(-c3cnc(NC4CC4)nc3)c(Cl)c2c1C#N` [Example 48, (R)-3-chloro-2-(2-(cyclopropylamino)pyrimidin-5-yl)-5-(3-hydroxy-2,6-dimethylphenyl)-1H-pyrrolo[2,3-b]pyridine-4-carbonitrile], the IC50 is < 10 nM.

As to `Cc1ccc(O)c(C)c1-c1cnc2[nH]c(-c3cnc(N4CCC4)nc3)cc2c1C#N` [Example 49, (R)-2-(2-(azetidin-1-yl)pyrimidin-5-y1)-5-(3-hydroxy-2,6-dimethylphenyl)-1H-pyrrolo[2,3-b]pyridine-4-carbonitrile], the IC50 is < 10 nM.

Regarding `Cc1ccc(O)c(C)c1-c1cnc2[nH]c(-c3cnc(N(C)C)nc3)c(Cl)c2c1C#N` [Example 50, (S)-3-chloro-2-(2-(dimethylamino)pyrimidin-5-yl)-5-(3-hydroxy-2,6-dimethylphenyl)-1H-pyrrolo[2,3-b]pyridine-4-carbonitrile], the IC50 was < 10 nM.

With `Cc1ccc(O)c(C)c1-c1cnc2[nH]c(-c3cnc(O)nc3)cc2c1C#N` [Example 52, (R)-5-(3-hydroxy-2,6-dimethylphenyl)-2-(2-hydroxypyrimidin-5-yl)-1H-pyrrolo[2,3-b]pyridine-4-carbonitrile], the IC50 was < 10 nM.

As to `Cc1ccc(O)c(C)c1-c1cnc2[nH]c(-c3cnc(OC4COC4)nc3)cc2c1C#N` [Example 53, (S)-5-(3-hydroxy-2,6-dimethylphenyl)-2-(2-(oxetan-3-yloxy)pyrimidin-5-yl)-1H-pyrrolo[2,3-b]pyridine-4-carbonitrile], the IC50 is < 10 nM.

Take `Cc1ccc(O)c(C)c1-c1cnc2[nH]c(-c3cnc(C(F)F)nc3)c(Cl)c2c1C#N` [Example 54, (S)-3-chloro-2-(2-(difluoromethyl)pyrimidin-5-yl)-5-(3-hydroxy-2,6-dimethylphenyl)-1H-pyrrolo[2,3-b]pyridine-4-carbonitrile]: the IC50 is < 10 nM.

Turning to `Cc1ccc(O)c(C)c1-c1cnc2[nH]c(-c3cnc(C(F)(F)F)nc3)cc2c1C#N` [Example 55, 5-(3-hydroxy-2,6-dimethylphenyl)-2-(2-(trifluoromethyl)pyrimidin-5-yl)-1H-pyrrolo[2,3-b]pyridine-4-carbonitrile], the IC50 is < 10 nM.

With `Cc1ccc(O)c(C)c1-c1cnc2[nH]c(-c3cnc(C4CC4)nc3)cc2c1C#N` [Example 56, (S)-2-(2-cyclopropylpyrimidin-5-yl)-5-(3-hydroxy-2,6-dimethylphenyl)-1H-pyrrolo[2,3-b]pyridine-4-carbonitrile], the IC50 is < 10 nM.

Regarding `Cc1ccc(O)c(C)c1-c1cnc2[nH]c(-c3cnc(C4CC4)nc3)c(Cl)c2c1C#N` [Example 57, (S)-3-chloro-2-(2-cyclopropylpyrimidin-5-yl)-5-(3-hydroxy-2,6-dimethylphenyl)-1H-pyrrolo[2,3-b]pyridine-4-carbonitrile], the IC50 was < 10 nM.

For the compound `Cc1ccc(O)c(C)c1-c1cnc2[nH]c(-c3cnc(CO)nc3)cc2c1C#N` [Example 58, (S)-5-(3-hydroxy-2,6-dimethylphenyl)-2-(2-(hydroxymethyl)pyrimidin-5-yl)-1H-pyrrolo[2,3-b]pyridine-4-carbonitrile], the IC50 was < 10 nM.

As to `Cc1ncc(-c2cc3c(C#N)c(-c4c(C)ccc(O)c4C)cnc3[nH]2)s1` [Example 59, (R)-5-(3-hydroxy-2,6-dimethylphenyl)-2-(2-methylthiazol-5-yl)-1H-pyrrolo[2,3-b]pyridine-4-carbonitrile], the IC50 is < 10 nM.

With `Cc1ncc(-c2[nH]c3ncc(-c4c(C)ccc(O)c4C)c(C#N)c3c2Cl)s1` [Example 60, (R)-3-chloro-5-(3-hydroxy-2,6-dimethylphenyl)-2-(2-methylthiazol-5-yl)-1H-pyrrolo[2,3-b]pyridine-4-carbonitrile], the IC50 is < 10 nM.

As for `Cc1ccc(O)c(C)c1-c1cnc2[nH]c(-c3cnc4[nH]cnc4c3)cc2c1C#N` [Example 63, (R)-5-(3-hydroxy-2,6-dimethylphenyl)-2-(3H-imidazo[4,5-b]pyridin-6-y1)-1H-pyrrolo[2,3-b]pyridine-4-carbonitrile], the IC50 was < 10 nM.

Turning to `Cc1ccc(O)c(C)c1-c1cnc2[nH]c(-c3cnc(C)c(=O)[nH]3)c(Cl)c2c1C#N` [Example 64, 3-chloro-5-(3-hydroxy-2,6-dimethylphenyl)-2-(5-methyl-6-oxo-1,6-dihydropyrazin-2-yl)-1H-pyrrolo[2,3-b]pyridine-4-carbonitrile], the IC50 is 10 to 50 nM.

For the compound `Cc1ccc(O)c(C)c1-c1cnc2[nH]c(-c3cnn(C)c(=O)c3)cc2c1C#N` [Example 65, 5-(3-hydroxy-2,6-dimethylphenyl)-2-(1-methyl-6-oxo-1,6-dihydropyridazin-4-yl)-1H-pyrrolo[2,3-b]pyridine-4-carbonitrile], the IC50 is < 10 nM.

As for `Cc1ccc(O)c(C)c1-c1cnc2[nH]c(-c3cnn(C)c(=O)c3)c(Cl)c2c1C#N` [Example 66, (R)-3-chloro-5-(3-hydroxy-2,6-dimethylphenyl)-2-(1-methyl-6-oxo-1,6-dihydropyridazin-4-yl)-1H-pyrrolo[2,3-b]pyridine-4-carbonitrile], the IC50 was < 10 nM.

For `COCCn1ncc(-c2[nH]c3ncc(-c4c(C)ccc(O)c4C)c(C#N)c3c2Cl)cc1=O` [Example 67, (R)-3-chloro-5-(3-hydroxy-2,6-dimethylphenyl)-2-(1-(2-methoxyethyl)-6-oxo-1,6-dihydropyridazin-4-yl)-1H-pyrrolo[2,3-b]pyridine-4-carbonitrile], the IC50 was < 10 nM.

For the compound `Cc1ccc(O)c(C)c1-c1cnc2[nH]c(-c3cnn(C4CCOCC4)c(=O)c3)c(Cl)c2c1C#N` [Example 68, (R)-3-chloro-5-(3-hydroxy-2,6-dimethylphenyl)-2-(6-oxo-1-(tetrahydro-2H-pyran-4-yl)-1,6-dihydropyridazin-4-yl)-1H-pyrrolo[2,3-b]pyridine-4-carbonitrile], the IC50 was < 10 nM.

For the compound `Cc1ccc(O)c(C)c1-c1cnc2[nH]c(-c3cnc(N4CC(C(=O)O)C4)nc3)cc2c1C#N` [Example 69, (R)-1-(5-(4-cyano-5-(3-hydroxy-2,6-dimethylphenyl)-1H-pyrrolo[2,3-b]pyridin-2-yl)pyrimidin-2-yl)azetidine-3-carboxylic acid], the IC50 was < 10 nM.

As to `Cc1ccc(O)c(C)c1-c1cnc2[nH]c(-c3cnc(N4CC(C(=O)O)C4)nc3)c(Cl)c2c1C#N` [Example 70, (R)-1-(5-(3-chloro-4-cyano-5-(3-hydroxy-2,6-dimethylphenyl)-1H-pyrrolo[2,3-b]pyridin-2-yl)pyrimidin-2-yl)azetidine-3-carboxylic acid], the IC50 is < 10 nM.

As for `Cc1ccc(O)c(C)c1-c1cnc2[nH]c(-c3cnc(N4CC(C(N)=O)C4)nc3)cc2c1C#N` [Example 71, (R)-1-(5-(4-cyano-5-(3-hydroxy-2,6-dimethylphenyl)-1H-pyrrolo[2,3-b]pyridin-2-yl)pyrimidin-2-yl)azetidine-3-carboxamide], the IC50 was < 10 nM.

Turning to `Cc1ccc(O)c(C)c1-c1cnc2[nH]c(-c3cnc(N4CCC(C(=O)O)C4)nc3)c(Cl)c2c1C#N` [Example 72, (R)-1-(5-((R)-3-chloro-4-cyano-5-(3-hydroxy-2,6-dimethylphenyl)-1H-pyrrolo[2,3-b]pyridin-2-yl)pyrimidin-2-yl)pyrrolidine-3-carboxylic acid], the IC50 was < 10 nM.

As to `Cc1ccc(O)c(C)c1-c1cnc2[nH]c(-c3cnc(N4CCC(C(N)=O)C4)nc3)c(Cl)c2c1C#N` [Example 73, (S)-1-(5-((R)-3-chloro-4-cyano-5-(3-hydroxy-2,6-dimethylphenyl)-1H-pyrrolo[2,3-b]pyridin-2-yl)pyrimidin-2-yl)pyrrolidine-3-carboxamide], the half-inhibitory concentration (IC50) is < 10 nM.

For `Cc1ccc(O)c(C)c1-c1cnc2[nH]c(-c3cnc(N4CCCC4CO)nc3)c(Cl)c2c1C#N` (centres unmarked) [Example 74, 3-chloro-5-(3-hydroxy-2,6-dimethylphenyl)-2-(2-(2-(hydroxymethyl)pyrrolidin-1-yl)pyrimidin-5-yl)-1H-pyrrolo[2,3-b]pyridine-4-carbonitrile], the IC50 was < 10 nM.

`COCCOc1ncc(-c2cc3c(C#N)c(-c4c(C)ccc(O)c4C)cnc3[nH]2)cn1` [Example 75, (R)-5-(3-hydroxy-2,6-dimethylphenyl)-2-(2-(2-methoxyethoxy)pyrimidin-5-yl)-1H-pyrrolo[2,3-b]pyridine-4-carbonitrile]: the IC50 is < 10 nM.
